Values joined by “and” are separate entries in the source; they are usually repeats but may differ in a detail not shown here. Equal values may be shown once.
How the values were obtained:
[1] = tested on: GFP–paCaMKII F89G in hippocampal neurons; assay: paCaMKII F89G photoactivation: dendritic spine growth (sLTP); assay type: cell-based
[2] = tested on: GFP–paCaMKII T286A in hippocampal neurons; assay: paCaMKII T286A photoactivation: dendritic spine growth (sLTP); assay type: cell-based

SMILES	spine growth after photoactivation of paCaMKII F89G ([1]; NM-PP1 10 μM)	dendritic spine growth after photoactivation (sheet 6f) ([1]; paCaMKII F89G + NMPP1, individual neurons)	spine growth after photoactivation of paCaMKII T286A ([2]; AS283 10 μM)	dendritic spine growth after photoactivation (sheet 6c) ([2]; paCaMKII T286A + AS283, individual neurons)
CC(C)(C)n1nc(Cc2cccc3ccccc23)c2c(N)ncnc21 [NM-PP1]	spine growth	172.556 and 35.7596 and 20.47 and 19.9369 and 44.1548 and -7.983 and 10.7769 and 28.3493 and 0.9564 and -9.357 and -3.692 and 75.8167 and 167.851 and -2.441 and -1.61 and -17.673 and 155.504 and 81.1061	–	–
NCCNc1cccc(-c2ccnc3[nH]c4ccccc4c23)c1 [AS283]	–	–	spine growth	17.1219 and 31.801 and 10.2332 and 47.3616 and 15.5579 and 21.0974 and 9.7214 and 4.0121 and 26.179

— paper PMC10482691, “LTP induction by structural rather than enzymatic functions of CaMKII” (Nature, 2023)
